Data taken from the NIST ThermoML archive (doi:10.1021/acs.jced.5b00251).

Assay: refractive index (other wavelength) (dimensionless); xn = mol fraction of the nth substance listed
Details: 101 kPa, Liquid, Standard Abbe refractometry

CC(C)Cc1ccccc1 [(2-methylpropyl)benzene] + CCCCCCCCCCCC
refractive index
Details	x1 = 0.1014	x1 = 0.2024	x1 = 0.3032	x1 = 0.4036	x1 = 0.5038	x1 = 0.6036	x1 = 0.7032	x1 = 0.8024	x1 = 0.9014
293.15 K, Wavelength=436.1 nm	1.43714	1.44344	1.45015	1.45682	1.46405	1.47144	1.47917	1.48711	1.49556
293.15 K, Wavelength=513.9 nm	1.4307	1.4365	1.44273	1.44889	1.45559	1.46247	1.46959	1.47693	1.48487
293.15 K, Wavelength=589.3 nm	1.42708	1.4326	1.43856	1.44443	1.45083	1.45746	1.46421	1.47122	1.47869
293.15 K, Wavelength=633.2 nm	1.42554	1.43094	1.4368	1.44255	1.44884	1.45524	1.46196	1.46884	1.47617
293.15 K, Wavelength=657.2 nm	1.42541	1.43084	1.43659	1.44269	1.44849	1.45427	1.46085	1.46776	1.47491
298.15 K, Wavelength=436.1 nm	1.43491	1.44124	1.44775	1.45454	1.46153	1.46903	1.47676	1.48462	1.49284
298.15 K, Wavelength=513.9 nm	1.42851	1.43425	1.44037	1.44665	1.45312	1.46005	1.46722	1.4745	1.48229
298.15 K, Wavelength=589.3 nm	1.4249	1.43032	1.43623	1.44221	1.44841	1.45504	1.46188	1.46882	1.47611
298.15 K, Wavelength=633.2 nm	1.42337	1.42885	1.43449	1.44035	1.44642	1.45293	1.45965	1.46646	1.47371
298.15 K, Wavelength=657.2 nm	1.42267	1.42867	1.43417	1.44009	1.44578	1.45198	1.45863	1.46548	1.47249
303.15 K, Wavelength=436.1 nm	1.43262	1.43872	1.44552	1.45204	1.45929	1.4666	1.47424	1.48209	1.49024
303.15 K, Wavelength=513.9 nm	1.42624	1.43187	1.43818	1.44421	1.45077	1.45769	1.46477	1.47203	1.47981
303.15 K, Wavelength=589.3 nm	1.42267	1.42804	1.43406	1.43981	1.44611	1.45269	1.45946	1.46639	1.47362
303.15 K, Wavelength=633.2 nm	1.42115	1.42643	1.43232	1.43796	1.44427	1.45059	1.45721	1.46405	1.47135
303.15 K, Wavelength=657.2 nm	1.42052	1.42618	1.4321	1.43801	1.44358	1.44965	1.45625	1.46299	1.47001
308.15 K, Wavelength=436.1 nm	1.43035	1.43663	1.44293	1.44977	1.45671	1.46416	1.47181	1.47955	1.48775
308.15 K, Wavelength=513.9 nm	1.42401	1.42966	1.43562	1.44199	1.44841	1.45531	1.46239	1.46958	1.47731
308.15 K, Wavelength=589.3 nm	1.42043	1.42581	1.43152	1.43762	1.44375	1.45034	1.45708	1.46398	1.47126
308.15 K, Wavelength=633.2 nm	1.41894	1.42433	1.42979	1.4358	1.44178	1.44827	1.45488	1.46165	1.46871
308.15 K, Wavelength=657.2 nm	1.41824	1.42395	1.42984	1.43554	1.44115	1.44715	1.45387	1.46065	1.46758
313.15 K, Wavelength=436.1 nm	1.42808	1.43404	1.44059	1.4473	1.45448	1.46172	1.46924	1.47706	1.48511
313.15 K, Wavelength=513.9 nm	1.42179	1.42725	1.43332	1.43955	1.44611	1.45293	1.4599	1.46712	1.47502
313.15 K, Wavelength=589.3 nm	1.41826	1.42345	1.42938	1.4352	1.44159	1.44797	1.45466	1.46154	1.46878
313.15 K, Wavelength=633.2 nm	1.41677	1.42191	1.42752	1.43336	1.43965	1.4459	1.45247	1.45924	1.46652
313.15 K, Wavelength=657.2 nm	1.41612	1.42149	1.42761	1.43304	1.43882	1.44496	1.45159	1.45817	1.46515
318.15 K, Wavelength=436.1 nm	1.42579	1.43204	1.43791	1.44498	1.4518	1.45921	1.46673	1.47452	1.48247
318.15 K, Wavelength=513.9 nm	1.41953	1.42512	1.43094	1.43729	1.44389	1.45049	1.45744	1.46465	1.47245
318.15 K, Wavelength=589.3 nm	1.41596	1.42122	1.42669	1.43297	1.43898	1.44556	1.45224	1.4591	1.46615
318.15 K, Wavelength=633.2 nm	1.41454	1.41993	1.425	1.43114	1.4371	1.44352	1.45008	1.45679	1.46372
318.15 K, Wavelength=657.2 nm	1.41386	1.41979	1.42574	1.43091	1.43665	1.44244	1.44935	1.45594	1.46262
